Where a name gives a salt, the structure may show the parent alone. Where a SMILES comes first, the peptide text is derived from it. Where no end group is shown, it is not given here. [ ]: non-standard residue; d: D form. dNle = CCCC[C@@H](N)C(=O)O; Ahx = NCCCCCC(=O)O; GABA = NCCCC(=O)O
How the values were obtained:
[1] = biological target: T1, HGF (Homo sapiens, UniProt P14210); test: HGF binding, competition with 3H-Hinge
T1 construct: purchased R&D Systems (Minneapolis, Minn.)
Description: The binding of 6-AH analogs to HGF was assessed by competition using a soluble binding assay. 250 μl of PBS containing human HGF (1.25 ng) were incubated with ^3H-Hinge, the central dimerization domain of HGF, in the presence of varying concentrations of 6-AH analogs between 10^−13 M to 10^−7M (half-log dilutions) for 40 min at 37° C. The incubates were then spun through Bio-Gel P6 spin columns (400 μl packed volume) for 1 min to separate free and bound ^3H-Hinge and the eluent was collected. Five milliliters of scintillation fluid was added to the eluent, which contained the HGF bound ^3H-Hinge, and was then counted using scintillation counter. Total disintegrations per minute of bound ^3H-Hinge were calculated based on machine counting efficiency. The Ki values for the binding of the peptides were determined using the Prism 5. Competition binding curves were performed in triplicate.

[2] = biological target: T1, HGF; test: HGF dimerization; type: biochemical; conditions: analog at 10^−10M, 30 minute incubation with heparin
Description: HGF dimerization was assessed using PAGE followed by silver staining (Kawas et al., 2011). Human HGF at a concentration of 0.08 ng/μl with or without 6-AH analogs was incubated with heparin at a final concentration of 5 μg/ml. Loading buffer was then added to each sample and the mixture separated by native PAGE using gradient Criterion XT precast gels (4-12% Bis-Tris; Biorad Laboratories, Hercules, Calif.). Next the gel was silver stained for the detection of the HGF monomers and dimers. Bands were quantitated from digital images using a UVP phosphoimager (Upland, Calif.).

[3] = test system: MDCK cells; test: Inhibition of HGF-dependent scattering in MDCK cells; type: cell-based, canine; conditions: for inhibition of HGF-dependent scattering in MDCK cells: HGF 20 ng/ml, 48 h
Description: (§1) MDCK cells were grown to 100% confluency on the coverslips in six-well plates and washed twice with PBS. The confluent coverslips were then aseptically transferred to new six well plates containing 900 μl serum free DMEM. Norleual, Hinge peptide, and/or HGF (20 ng/ml) were added to appropriate wells. Control wells received PBS vehicle. Plates were incubated at 37° C. with 5% CO2 for 48 hours. Media was removed and cells were fixed with methanol. Cells were stained with Diff-Quik Wright-Giemsa (Dade-Behring, Newark, Del.) and digital images were taken. Coverslips were removed with forceps and more digital images were captured. Pixel quantification of images was achieved using Image J and statistics were performed using Prism 5 and InStat v.3.05.
as §1, with “h.” for “hours.”, “v.3.05 (GraphPad; San Diego, Calif.).” for “v.3.05.”

[4] = test system: Met; test: Inhibition of HGF-dependent Met phosphorylation in HEK293 cells; type: cell-based, human; conditions: 10 min
Description: HEK293 cells were seeded in 6 well tissue culture plates and grown to 95% confluency in DMEM containing 10% FBS. The cells were serum deprived for 24 h prior to the treatment to reduce the basal levels of phospho-Met. Following serum starvation, cocktails comprised of vehicle and HGF with/without 6-AH analogs were prepared and pre-incubated for 30 min at room temperature. The cocktail was then added to the cells for 10 min to stimulate the Met receptor and downstream proteins. Cells were harvested using RIPA lysis buffer (Millipore; Billerica, Mass.) fortified with phosphatase inhibitor cocktails 1 and 2 (Sigma-Aldrich; St. Louis, Mo.). The lysate was clarified by centrifugation at 15,000 n×g for 15 min, protein concentrations were determined using the BCA total protein assay (Pierce), and then appropriate volumes of the lysates were diluted with 2× reducing Laemmli buffer and heated for ten min at 95° C. Samples containing identical amounts of protein were resolved using SDS-PAGE (Criterion, BioRad Laboratories), transferred to nitrocellulose, and blocked in Tris-buffered saline (TBS) containing 5% milk for 1 h at room temperature. The phospho-Met antibody were added to the blocking buffer at a final concentration of 1:1000 and incubated at 4° C. overnight with gentle agitation. The membranes were then washed several times with water and TBS ([…]), a 1:5000 dilution of horseradish-peroxidase conjugated goat anti-rabbit antiserum was added, and the membranes further incubated for 1 h at room temperature. Proteins were visualized using the Supersignal West Pico Chemiluminescent Substrate system (Pierce, Fenton, Mo.) and molecular weights determined by comparison to protein ladders (BenchMark, Invitrogen, and Kaleidoscope, BioRad). Film images were digitized and analyzed using a UVP phosphoimager.

[5] = test system: hippocampal neurons; test: Spinogenesis in mRFP-β-actin transfected dissociated hippocampal neurons; type: cell-based, rat
Description: Hippocampal neurons ([…] cells per square cm) were cultured from P1 Sprague Dawley rats on plates coated with poly-L-lysine from Sigma (St. Louis, Mo.; molecular weight 300,000). Hippocampal neurons were maintained in Neurobasal A media from Invitrogen (Carlsbad, Calif.) supplemented with B27 from Invitrogen, 0.5 mM L-glutamine, and […] cytosine-D-arabinofuranoside from Sigma added at 2 days in vitro. Hippocampal neurons were then cultured a further 3-7 days, at which time they were either transfected or treated with various pharmacological reagents as described in (Wayman, Davare et al. 2008).
Neurons were transfected with mRFP-β-actin on day in vitro 6 (DIV6) using LipofectAMINE™ 2000 (Invitrogen) according to the manufacturer's protocol. This protocol yielded the desired 3-5% transfection efficiency thus enabling the visualization of individual neurons. Higher efficiencies obscured the dendritic arbor of individual neurons. Expression of fluorescently tagged actin allowed clear visualization of dendritic spines, as dendritic spines are enriched in actin. On DIV7 the cells were treated with vehicle (H20) or peptides (as described in the text) added to media. On DIV12 the neurons were fixed (4% paraformaldehyde, 3% sucrose, 60 mM PIPES, 25 mM HEPES, 5 mM EGTA, 1 mM MgCl2, pH 7.4) for 20 min at room temperature and mounted. Slides were dried for at least 20 hours at 4° C. and fluorescent images were obtained with Slidebook 4.2 Digital Microscopy Software driving an Olympus IX81 inverted confocal microscope with a 60× oil immersion lens, NA 1.4 and resolution 0.280 μm Dendritic spine density was measured on primary and secondary dendrites at a distance of at least 150 μm from the soma. Five 50 μm long segments of dendrite from at least 10 neurons per data point were analyzed for each data point reported. Each experiment was repeated at least three times using independent culture preparations. Dendrite length was determined using the National Institutes of Health's Image J 1.41o program (NIH, Bethesda, Md.) and the neurite tracing program Neuron J (Meijering, Jacob et al. 2004) Spines were manually counted.
Hippocampal neurons (2×10^5 cells per square centimeter) were cultured from P1-2 Sprague Dawley rats on plates coated with poly-L-lysine from Sigma (St. Louis, Mo.; molecular weight 300,000). Hippocampal neurons were maintained in Neurobasal A media from Invitrogen (Carlsbad, Calif.) supplemented with B27 from Invitrogen, 0.5 mM L-glutamine, and […] cytosine-D-arabinofuranoside from Sigma added at 2 days in vitro. Hippocampal neurons were then cultured a further 3-7 days, at which time they were either transfected or treated with various pharmacological reagents as described in the text or figure legends.

[6] = test system: hippocampal neurons; test: Whole-cell recordings of mEPSCs in dissociated hippocampal neurons; type: cell-based, rat; design: mean mEPSC frequency: unit not given beside the values; conditions: 5 days; Hinge 10^−12 M, HGF 10 ng/ml, Dihexa 10^−12 M, alone or combined; vehicle 5.31±0.35
[7] = test system: scopolamine treated rats; test: Morris water maze, scopolamine amnesia model; type: in vivo, rat; conditions: for mean latency to find the pedestal, final day of training / mean latency to find the pedestal, fourth day of training / mean latency to find the pedestal, day one of training: icv, scopolamine 70 nmol, Dihexa 300 pmol, Hinge 300 pmol; for mean latency to find the pedestal, final day of training / mean latency to find the pedestal, fourth day of training: vehicle 43.0 s; for mean latency to find the pedestal, day one of training: vehicle 89.3 s
[8] = test system: MDCK cells; test: HGF-dependent MDCK cell proliferation (MTT); type: cell-based, canine; conditions: 10^−10 M, 4 days, HGF 10 ng/ml
Description: 5000 MDCK cells were seeded into the wells of a 96 well plates in 10% FBS DMEM. To induce cellular quiescence, the cells were serum deprived for 24 h prior to initiating the treatments. Following serum starvation, 10 ng/ml HGF alone and with various concentrations of 6-AH analogs or PBS vehicle were added to the media. The cells were allowed to grow under these conditions for 4 days with a daily addition of 6-AH analogs. On the fourth day, 1 mg/ml of 1-(4, 5-Dimethylthiazol-2-yl) 3, 5-diphenylformazan reagent (MTT, Sigma-Aldrich) prepared in PBS was added to the cells and incubated for 4 h. Dimethyl sulfoxide diluted in a 0.01M glycine buffer was added to solubilize the cell membranes and the absorbance of reduced MTT in the buffer was quantitated at 590 nm using a plate reader (Biotek Synergy 2, Winooski, Vt.). HGF-dependent proliferation was determined by subtracting the basal proliferation (in the absence of HGF) from total proliferation rates in groups containing HGF.

[9] = Blood stability studies; type: in vitro ADME, rat; conditions: rat, heparinized whole blood, heparinized rat blood, 37° C., single phase exponential decay; read-out: stability t1/2 in blood
Description: At the end of each incubation, 20 μL of Nle^1-AngIV (100 μg/mL) was added to each sample as an internal standard. […] All samples were centrifuged at 4° C., 2300× g for 5 min and the supernatants were transferred to clean tubes.
Samples were then separated by HPLC on an Econosphere C18 (100 mm×2.1 mm) from Grace Davison Discovery Science (Deerfield, Ill.). […] The mobile phase consisted of HPLC water (Sigma St. Louis, Mo.) with 0.1% trifluoroacetic or 0.1% heptafluorobutyric acid (Sigma St. Louis, Mo.) and varying concentrations of ACN or methanol. Separation was carried out using a gradient method, at ambient temperature and a flow rate of 0.3 mL/min (see below for more information). Stability half-lives were determined assuming a normal single phase exponential decay using Prism 5 graphical/statistical program (GraphPad, San Diego, Calif.).

T1 sequence (P14210 32-728): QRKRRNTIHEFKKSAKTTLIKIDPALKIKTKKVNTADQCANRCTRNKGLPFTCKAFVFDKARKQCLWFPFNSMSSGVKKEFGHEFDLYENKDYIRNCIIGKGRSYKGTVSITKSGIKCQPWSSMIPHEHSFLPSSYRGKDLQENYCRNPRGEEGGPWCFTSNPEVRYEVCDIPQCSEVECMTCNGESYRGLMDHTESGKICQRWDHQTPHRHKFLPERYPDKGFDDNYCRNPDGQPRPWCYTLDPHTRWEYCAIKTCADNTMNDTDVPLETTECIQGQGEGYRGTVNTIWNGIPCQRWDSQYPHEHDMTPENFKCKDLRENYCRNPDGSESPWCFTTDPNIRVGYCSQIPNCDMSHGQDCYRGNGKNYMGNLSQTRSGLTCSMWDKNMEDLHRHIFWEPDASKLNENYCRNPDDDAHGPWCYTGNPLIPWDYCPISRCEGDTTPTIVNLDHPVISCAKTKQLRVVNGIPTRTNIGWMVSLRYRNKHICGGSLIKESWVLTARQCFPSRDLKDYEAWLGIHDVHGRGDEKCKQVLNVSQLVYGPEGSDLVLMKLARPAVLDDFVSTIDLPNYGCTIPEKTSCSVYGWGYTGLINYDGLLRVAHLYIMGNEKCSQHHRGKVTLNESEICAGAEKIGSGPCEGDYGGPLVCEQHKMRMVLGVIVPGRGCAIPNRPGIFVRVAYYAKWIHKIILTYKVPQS

Compound: CCCC[C@@H](N)C(=O)N[C@@H](CCSC)C(=O)N[C@H](C(=O)NCCCCCC(N)=O)[C@@H](C)CC [D-Nle-Met-Ile-NH—(CH2)5—CONH2] (H-[dNle]MI[Ahx]-NH2)
- affinity for HGF (in words) [1]: low affinity for HGF
- inhibition of HGF dimerization [2]: unable to block dimerization at the concentration tested
- inhibition of HGF-dependent scattering in MDCK cells [3]: not different
- inhibition of HGF-dependent Met phosphorylation [4]: no ability to effect on Met activation
- inhibition of HGF-dependent Met phosphorylation ([4]; listed as Met): not different than the HGF group

Compound: Nle-YIH-amide
- dendritic spine numbers ([5]; 10^-8 and 10^-10 M): increased spine numbers

Compound: DYIRNC (Synthetic hinge peptide) [HGF antagonist peptide representing the dimerization (hinge) domain of HGF; also printed KDYIRN, reference compound]
- mean mEPSC frequency [6]: 4.51±0.47
- mean latency to find the pedestal, final day of training [7]: 46.1 s
- mean latency to find the pedestal, fourth day of training [7]: 78.3 s
- mean latency to find the pedestal, day one of training [7]: 111.1 s
- inhibition of spine formation in stimulated neurons ([5]; neurons stimulated with 10 ng/ml HGF, 10^−12 M Nle1-AngIV or 10^−12 M Dihexa): effectively inhibit spine formation
- effect of Hinge alone on basal spinogenesis ([5]; wide range of doses): no effect on spinogenesis over a wide range of doses
- inhibition of scattering of MDCK cells by Hinge [3]: inhibit scattering of Madin-Darby canine kidney (MDCK) cells

Compound: CCCC[C@@H](N)C(=O)N[C@@H](Cc1c[nH]c2ccccc12)C(=O)N[C@H](C(=O)NCCCCCC(N)=O)[C@@H](C)CC [D-Nle-Trp-Ile-NH—(CH2)5—CONH2] (H-[dNle]WI[Ahx]-NH2)
- affinity for HGF (in words) [1]: moderate affinity for HGF
- inhibition of HGF dimerization [2]: intermediate inhibition of dimerization
- inhibition of HGF dimerization ([2]; listed as Trp): statistically different than the HGF treated group
- inhibition of HGF-dependent MDCK cell proliferation [8]: inhibitory activity, albeit less than that observed with the most potent analogs
- inhibition of HGF-dependent scattering in MDCK cells [3]: different from the HGF alone group but not different from the control group
- inhibition of HGF-dependent Met phosphorylation [4]: intermediate inhibitory activity

Compound: CN1[C@@H]2C[C@@H](OC(=O)[C@H](CO)c3ccccc3)C[C@H]1[C@@H]1O[C@@H]12 [scopolamine, scopolamine hydrobromide, reference compound]
- mean latency to find the pedestal, final day of training [7]: 84.8 s
- mean latency to find the pedestal, fourth day of training [7]: 102.4 s
- mean latency to find the pedestal, day one of training [7]: 114.7 s

Compound: CCCC[C@H](N)C(=O)N[C@@H](Cc1ccc(O)cc1)C(=O)N[C@H](CN[C@@H](Cc1c[nH]cn1)C(=O)N1CCC[C@H]1C(=O)N[C@@H](Cc1ccccc1)C(=O)O)CC(C)C [Norleual, Nle-Tyr-Leu-Ψ-(CH2—NH2)^3-4-His-Pro-Phe, reference compound]
- half-life [9]: < 5 min

Compound: [GABA]-Tyr-Ile [GABA-YI]
- time in the target quadrant, day 9 probe trial ([7]; analog 1 nmol icv after scopolamine): different than all the other treated groups
- dendritic spine numbers ([5]; 10^-8 and 10^-10 M): increased spine numbers

Compound: acetyl-Nle-YIH
- dendritic spine numbers ([5]; 10^-8 and 10^-10 M): increased spine numbers
- dendritic spine numbers ([5]; concentrations lower than 10^-10 M): increasing spine numbers at even lower concentrations
